Test results reported in US5304367A, “In vivo brain imaging agent and method for diagnosis of psychiatric disorders” (New York University, priority 1990, dated 1994).
Values joined by “and” are separate entries in the source; they are usually repeats but may differ in a detail not shown here. Identical values can stand only once. Like-named read-outs stand apart in the source and are kept apart here.

Legend:
β1-receptors = molecular target: T1, β1-receptors (Homo sapiens, UniProt P08588); test: [^3 H]DHA saturation binding in prefrontal cortical homogenates, β1-receptors
T1 construct: Crude membrane preparations were made from the homogenates; from tissue; host or cells: human post-mortem prefrontal cortex (grey matter), crude membranes
Text: (§1) Following the characterization and localization of a group effect (such as, for example, age, sex or suicide) by autoradiography, samples from at least one involved region are dissected from the relevant blocks and homogenized for saturation binding studies using well known techniques.
(§2) The brains were removed at autopsy and the right hemisphere sliced in the coronal plane. The slices, about 2 cm thick, were examined for signs of pathology and frozen in powdered dry ice, then removed for long-term storage at -80° C. Grey matter from the most frontal slice (prefrontal cortex) was dissected with a scalpel and homogenized. Crude membrane preparations were made from the homogenates, divided and stored frozen for saturation binding assays. The other slices were used for autoradiography. Eight concentrations of [^3 H]DHA (New England Nuclear, specific activity: 72 Ci/mmol), ranging from 0.1 to 4 nM were incubated with samples of the membrane preparations, with parallel incubates containing 10^-6 M propranolol to establish non-specific binding (Biegon et al., Life Sci. 32:2015-2022 ;(1983)); Enna et al., J. Neurochem. 28:233-236 (1983)). β-Receptor subtypes were distinguished by coincubation of the radioligand 10^-6 M concentrations of either zinterol, a […] blocker, or […] blocker, in 5 out of the 10 pairs included in this part of the study (Ecker et al., Int. Catecholamine Symp. Abstr. 6:52 (1987)). The affinity (Kd and maximal density (Bmax) of the receptors were derived from Scatchard analysis (Scatchard G., Ann. N.Y. Acad. Sci. 51:660-672 (1949)) of the binding data and protein was assayed by the method of Lowry et al.(Lowry et al., J. Biol. Chem. 193:265-275 (1951)).

β-adrenergic receptor = test: [^3 H]DHA saturation binding in prefrontal cortical homogenates from suicides and controls (Scatchard analysis); design: species or system human
Text: as §1
Fourteen suicide and 14 pair-matched control brains were collected over 3 years from the medical examiner's offices in New York City and Jaffa, ISRAEL. […] The results of the coroner's examination as well as the results of broad-spectrum toxicological tests performed by the forensic laboratory were made available within 8 weeks. Only drug-free and pathology-free brains were included. For each suicide brain, a control matched for sex and age group with a PMD under 48 hours was collected the same day or within a few days, so that the pairs are also matched for storage time. The brains from each pair were dissected or sectioned on the same day and receptors were labeled in the same experiment, by an experimenter blind to the identity of the samples.
as §2
The binding characteristics of βARs were studied in prefrontal cortical homogenates from 10 pairs. The region corresponds to Brodmann's areas 9 and 10.

β2 receptor = test: ^3 H-DHA saturation binding on homogenates of frontal superior gyrus, β2; design: species or system human; conditions: 3 brains, 0.1 μM zinterol or metoprolol for subtype differentiation
Method: as §1
(§3) Based on 3 brains, a total Bmax of 50-100 fm/mg protein was calculated, with the β1 receptor subtype accounting for the majority of the sites (Bmax: 40-60 fm/mg protein) and a smaller β2 receptor fraction (Bmax: 25-40 fm/mg protein). The Bmax values for the two subtypes added up to total specific binding in each individual brain, confirming the use of the two blocker concentrations for receptor subtype differentiation.

β1 receptor subtype = test: ^3 H-DHA saturation binding on homogenates of frontal superior gyrus, β1; design: species or system human; conditions: 3 brains, 0.1 μM zinterol or metoprolol for subtype differentiation
Method: as §1, §3

βAR [1] = test: ^3 H-DHA saturation binding on homogenates of frontal superior gyrus, total; design: species or system human; conditions: 3 brains
β2-receptors = molecular target: T2, β2-receptors (Homo sapiens, UniProt P07550); test: [^3 H]DHA saturation binding in prefrontal cortical homogenates, β2-receptors
T2 construct: Crude membrane preparations were made from the homogenates; from tissue; host or cells: human post-mortem prefrontal cortex (grey matter), crude membranes
Text: as §1, §2

βAR [2] = test: in vivo autoradiography of brain distribution and kinetics; design: species or system rat
Method: In vivo autoradiography was been used to study brain distribution and kinetics of iodopindolol. Groups of rats (3 per treatment/time) were injected intravenously (i.v.) in the tail vein with 250 μCi/kg ^125 I-iodopindolol, either alone or 5 min after an intraperitoneal injection of the βAR antagonist (beta blocker) propranolol (5 mg/kg), to define nonspecific binding. Animals were sacrificed by decapitation 15, 30, 60 and 90 minutes post- injection and the brains quickly removed. The right hemisphere and a blood sample were used for direct counting while the left hemisphere was frozen immediately on dry ice and then sectioned sagittally. Sections were apposed to hyperfilm for one week.

β2 receptors = test: autoradiographic mapping of β2 receptors (iodopindolol in the presence of metoprolol); assay type: binding, human; conditions: FIG. 4
Method: (§4) Slides holding tissue sections are incubated for about 70 min at approximately 25° C. with 0.15 nM ^125 I-iodopindolol (New England Nuclear, 2200 Ci/mmole) in 25 mM Tris buffer, pH 7.5, containing 150 mM NaCl. Nonspecific binding is determined in the presence of 1 μM propranolol (see Examples, below). Zinterol, a selective β2 blocker, or metoprolol, a selective β1 antagonist, are added to the incubation buffer at 0.1 μM to achieve selective labeling of the β1 and β2 receptor subtypes, respectively. The incubation is followed by three 20 min washes in the same ice cold buffer. Slides are then dipped in ice cold distilled water to remove buffer salts, dried on a 50° C. slide warmer and apposed to ^3 H-sensitive film (Amersham ^3 H-hyperfilm) for 48-96 hours. The film is coexposed to commercial iodine standards (available from Amersham, for example). Film is developed manually using standard developer and fixer such as those available from the Eastman-Kodak Company. […]
(§5) Based on 3 brains, a total Bmax of 50-100 fm/mg protein was calculated, with the β1 receptor subtype accounting for the majority of the sites (Bmax: 40-60 fm/mg protein) and a smaller β2 receptor fraction (Bmax: 25-40 fm/mg protein). […]

β2 = conditions: experimental animals; cited from earlier work
[3] = experimental animals; cited from earlier work
[4] = test system: serotonin receptors of the 5HT1B subtype; conditions: unlike most other βAR antagonists; cited from earlier work
[5] = test system: serotonin receptors of the 5HT1D subtype; conditions: unlike most other βAR antagonists; cited from earlier work
[6] = molecular target: beta adrenergic receptors (βAR); conditions: βAR antagonist; Barovsky et al.; read-out: affinity; cited from earlier work
β1 receptors = test: autoradiographic mapping of β1 receptors (iodopindolol in the presence of zinterol); assay type: binding, human; conditions: FIG. 3
Method: as §4, §5

β1 = conditions: experimental animals; cited from earlier work
[7] = whole body distribution, mice, 2 μCi; assay type: in vivo, mouse; conditions: conclusion from whole body distribution studies
Method: In a subsequent study, whole body distribution was examined in mice following tail vein injection of 2 μCi ^125 I-iodopindolol. Animals were sacrificed at various time points up to 22 hours post-injection. Percent injected dose (%ID) was determined in 11 organs, blood and urine. At one minute, lungs contained the highest %ID (17%), heart 3-4 %ID and brain 0.3%ID.

T2 sequence (P07550 whole entry, looked up): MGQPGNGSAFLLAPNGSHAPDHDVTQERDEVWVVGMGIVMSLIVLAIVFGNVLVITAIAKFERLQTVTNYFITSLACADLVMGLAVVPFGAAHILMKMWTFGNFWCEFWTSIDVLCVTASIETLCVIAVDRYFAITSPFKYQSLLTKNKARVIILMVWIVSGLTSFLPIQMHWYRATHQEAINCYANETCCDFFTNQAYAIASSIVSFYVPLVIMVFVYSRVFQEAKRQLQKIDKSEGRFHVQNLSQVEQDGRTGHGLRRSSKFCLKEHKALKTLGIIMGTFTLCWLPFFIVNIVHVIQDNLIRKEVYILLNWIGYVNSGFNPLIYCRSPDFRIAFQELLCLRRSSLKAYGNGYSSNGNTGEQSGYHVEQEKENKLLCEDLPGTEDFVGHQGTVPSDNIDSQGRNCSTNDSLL
T1 sequence (P08588 whole entry): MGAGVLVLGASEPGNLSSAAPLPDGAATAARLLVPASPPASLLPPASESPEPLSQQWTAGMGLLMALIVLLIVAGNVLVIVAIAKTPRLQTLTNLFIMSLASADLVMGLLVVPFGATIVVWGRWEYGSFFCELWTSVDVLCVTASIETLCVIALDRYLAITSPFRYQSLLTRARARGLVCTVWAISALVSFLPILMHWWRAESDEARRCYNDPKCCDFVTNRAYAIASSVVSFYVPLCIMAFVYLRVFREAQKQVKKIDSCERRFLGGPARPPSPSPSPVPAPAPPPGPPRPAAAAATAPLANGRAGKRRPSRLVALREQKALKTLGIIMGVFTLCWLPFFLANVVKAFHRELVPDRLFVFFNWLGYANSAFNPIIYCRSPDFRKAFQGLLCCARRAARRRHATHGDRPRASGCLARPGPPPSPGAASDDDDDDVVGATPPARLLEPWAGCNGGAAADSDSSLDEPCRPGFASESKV

CCCc1ccccc1OCC(O)CNC(C)C (stereo not drawn) [[^3 H]DHA, dihydroalprenolol]
Bmax, β1-receptors (β1-receptors; control, n=5): 37.7±9.3 fm/mg protein | Kd (β1-receptors; control, n=5): 2.2 ± 0.5 nM | Kd (β1-receptors; suicide, n=5): 1.7 ± 0.3 nM | Bmax, β1-receptors (β1-receptors; suicide, n=5, P<0.015): 50.3±9.4 fm/mg protein | Bmax (β-adrenergic receptor; control, individual of matched pair, prefrontal cortex): 65 fm/mg P and 92 fm/mg P and 44 fm/mg P and 31 fm/mg P and 86 fm/mg P and 55 fm/mg P and 78 fm/mg P and 36 fm/mg P and 32 fm/mg P and 53 fm/mg P | Kd (β-adrenergic receptor; control, individual of matched pair, prefrontal cortex, read-out: Kd): 0.84 nM and 0.8 nM and 0.3 nM and 0.4 nM and 0.6 nM and 1.25 nM and 1.5 nM | Bmax, mean (β-adrenergic receptor; control, mean of 10, SEM 7.9): 57.7 fm/mg P | change in receptor affinity (Kd) (β-adrenergic receptor; suicide vs control): no significant change in receptor affinity | Increases in binding (range) (β-adrenergic receptor; suicide vs control, 9 of the 10 pairs): 30% to 115% | Increases in binding (mean) (β-adrenergic receptor; suicide vs control, P<0.0003): 48% | Bmax (β-adrenergic receptor; suicide, individual of matched pair, prefrontal cortex): 108 fm/mg P and 81 fm/mg P and 85 fm/mg P and 67 fm/mg P and 119 fm/mg P and 97 fm/mg P and 106 fm/mg P and 58 fm/mg P and 53 fm/mg P and 83 fm/mg P | Kd (β-adrenergic receptor; suicide, individual of matched pair, prefrontal cortex, read-out: Kd): 0.98 nM and 0.9 nM and 1.5 nM and 1.2 nM and 1.4 nM and 1.1 nM and 1 nM and 0.4 nM and 0.8 nM | Kd (β-adrenergic receptor; suicide, mean of 10, SEM 0.1, read-out: Kd, mean): 1 nM | Bmax, mean (β-adrenergic receptor; suicide, mean of 10, SEM 7.8, P < 0.0003): 86.0 fm/mg P | Bmax, β2 receptor (β2 receptor): 25-40 fm/mg protein | Bmax, β1 receptor subtype (β1 receptor subtype): 40-60 fm/mg protein | total Bmax (βAR [1]): 50-100 fm/mg protein | Bmax, β2-receptors (β2-receptors; control): 28.0±4.0 fm/mg protein | Kd (β2-receptors; control): 1.1 ± 0.13 nM | Bmax, β2-receptors (β2-receptors; suicide, p=0.1): 39.2±3.1 fm/mg protein

CC(C)NCC(O)COc1cccc2[nH]cc(I)c12 (stereo not drawn) [iodopindolol]
difference between total and nonspecific binding to brains (βAR [2]; 15 and 30 minutes post-injection, 250 μCi/kg i.v., propranolol 5 mg/kg i.p.): very small difference | brain binding of radiolabel, propranolol pre-injected (βAR [2]; 60 and 90 minutes, propranolol 5 mg/kg i.p.): low and uniform brain binding of radiolabel | distribution of binding in the brain (βAR [2]; 60 and 90 minutes, without propranolol): high levels in frontal cortex, caudate, and cerebellum; moderate to low levels in various hippocampal structures and thalamic nuclei; low levels in brain stem and medulla | difference between iodopindolol alone and propranolol-pretreated animals (βAR [2]; FIG. 5, 15 minutes post injection): no apparent difference | distribution of radioactivity (βAR [2]; FIG. 6, 60 minutes post injection): relatively high levels in external cortical layers, caudate and cerebellum and relatively low levels in hippocampus | brain levels of bound radiolabel (βAR [2]; between 60 and 90 minutes): do not decline appreciably between 60 and 90 minutes | specific labelling of βAR in the brain (βAR [2]; one hour after injection): specifically labels βAR | distribution of β2 receptors (β2 receptors): found in internal cortical layers and predominate in hippocampus, cerebellum and white matter | labelling of βAR subtype β2 in vivo (β2): labels both βAR subtypes, β1 and β2, in vivo | crossing of blood brain barrier [3]: crosses the blood brain barrier | affinity for serotonin receptors, 5HT1B [4]: low affinity | affinity for serotonin receptors, 5HT1D [5]: low affinity | Kd [6]: < 1 nM | distribution of β1 receptors (β1 receptors): predominate in the prefrontal cortical external layers and in basal ganglia | labelling of βAR subtype β1 in vivo (β1): labels both βAR subtypes, β1 and β2, in vivo | brain uptake [7]: hindered by the blood brain barrier
